Reference: ChEMBL document CHEMBL1134900, “Substituted 3-amino biaryl propionic acids as potent VLA-4 antagonists” (Bioorg Med Chem Lett, 2002)

Columns and labels:
[1] = Compound was tested for its plasma volume distribution in Sprague Dawley rats; conditions: rat
[2] = Compound was tested for its plasma half life in Sprague Dawley rats; conditions: rat
[3] = Compound was tested for its plasma clearance rate in Sprague Dawley rats; conditions: rat
[4] = in vivo; conditions: rhesus monkey, plasma, iv, 0.75 mg/kg
Description: Compound was tested for its plasma clearance rate in rhesus monkey at a dose of 0.75 mg/kg iv/ 1.5 mg/kg po

Vd [1] [L/kg] | half-life [2] [h] | clearance [3] [mL/min/kg] | clearance [4] [mL/min/kg] | SMILES
0.13 | 1.3 | 2.3 |  | COc1cccc(F)c1-c1ccc([C@@H](CC(=O)O)NC(=O)[C@]2(C)CCCN2S(=O)(=O)c2cc(Cl)cc(Cl)c2)cc1
 |  | 14.6 |  | COc1cc(F)ccc1-c1ccc([C@@H](CC(=O)O)NC(=O)[C@@H]2CCCN2S(=O)(=O)c2cc(Cl)cc(Cl)c2)cc1
1.1 | 1.6 | 24.9 |  | COc1cccc(OC(F)(F)F)c1-c1ccc([C@@H](CC(=O)O)NC(=O)[C@]2(C)CCCN2S(=O)(=O)c2cc(Cl)cc(Cl)c2)cc1
0.08 | 1.2 | 2.3 |  | COc1ccc(F)cc1-c1ccc([C@@H](CC(=O)O)NC(=O)[C@]2(C)CCCN2S(=O)(=O)c2cc(Cl)cc(Cl)c2)cc1
0.12 | 0.9 | 2.5 |  | COc1cc(F)cc(-c2ccc([C@@H](CC(=O)O)NC(=O)[C@]3(C)CCCN3S(=O)(=O)c3cc(Cl)cc(Cl)c3)cc2)c1
1.4 | 1.8 | 51.6 |  | COc1cccc(OC)c1-c1ccc([C@@H](CC(=O)O)NC(=O)[C@@H]2CCCN2S(=O)(=O)c2cc(Cl)cc(Cl)c2)cc1
0.58 | 3 | 13.1 |  | COc1ccc(F)cc1-c1ccc([C@@H](CC(=O)O)NC(=O)[C@@H]2CCCN2S(=O)(=O)c2cc(Cl)cc(Cl)c2)cc1
0.12 | 2.4 | 5 | 22.1 | COc1ccccc1-c1ccc([C@@H](CC(=O)O)NC(=O)[C@@H]2CCN2S(=O)(=O)c2cc(Cl)cc(Cl)c2)cc1
0.08 | 1.3 | 1.1 |  | COc1ccccc1-c1ccc([C@@H](CC(=O)O)NC(=O)[C@H]2CCCN2S(=O)(=O)c2cc(Cl)cc(Cl)c2)cc1
0.19 | 0.7 | 16.3 |  | COc1cccc(F)c1-c1ccc([C@@H](CC(=O)O)NC(=O)[C@@H]2CCCN2S(=O)(=O)c2cc(Cl)cc(Cl)c2)cc1
1.5 | 1.1 | 22.1 |  | COc1ccc([C@@H](CC(=O)O)NC(=O)[C@@H]2CCN2S(=O)(=O)c2cc(Cl)cc(Cl)c2)cc1
